Data from patent US20230398126A1 (priority 2022, published 2023).

Legend:
virulent RVFVs = conditions: cited from earlier work
[1] = tested on: MP12 vaccine and its divergents; conditions: cited from earlier work
MP12 virus = test: microbe, parasite or virus in culture; assay type: cell-based; conditions: Rift Valley fever virus, Vero C1008
in vitro = conditions: African green monkey

Row | SMILES | antiviral activity on tested virulent RVFVs (virulent RVFVs) | inhibition of MP12 vaccine and its divergents [1] | EC50 (MP12 virus) [µM] | CC50 (in vitro) [µM]
1 | O=c1cnn([C@@H]2O[C@H](CO)[C@@H](O)[C@H]2O)c(=O)[nH]1 [Compound 6-azauridine, 6-azauridine] | antiviral activity | inhibited |  | 
2 | NC(=O)c1ncn([C@@H]2O[C@H](CO)[C@@H](O)[C@H]2O)n1 [Ribavirin] | antiviral activity | inhibited |  | 
3 | CN1C(=O)c2cccnc2Sc2cc(C(=O)Nc3ccc(Cl)cc3)ccc21 [WMA-RV1] |  |  | 0.863 | 320
4 | NC(=O)c1ccc2c(c1)n(Cc1cccc(F)c1)c(=O)c1ccnn12 [WMA-RV2] |  |  | 6.96 | > 1280
5 | CC(Cl)C(=O)N1CCCN(c2nc3ccccc3nc2-c2ccccc2)CC1 (centres unmarked) [WMA-RV3] |  |  | 2.08 | 363
6 | CC(Cl)C(=O)N1CCN(c2nccc(-c3ccc(C(C)(C)C)cc3)n2)CC1 (centres unmarked) [WMA-RV4] |  |  | 3.19 | 168
7 | Cc1cc(C)c(C)c(S(=O)(=O)N2CCC(c3c[nH]c4c(C)cccc34)CC2)c1C [WMA-RV5] |  |  | 9.14 | > 1280
8 | Cc1ccc(CN2CCCN(c3ccc(NC(=O)c4ccccc4C)cn3)CC2)cc1 [WMA-RV6] |  |  | 1.03 | 692
9 | Cc1ccccc1CN1CCCN(c2cccc(NC(=O)c3cccs3)c2)C1=O [WMA-RV7] |  |  | 15.5 | > 1280
10 | Cc1nn(-c2ccccc2)c2sc(C(=O)NC(C)C)cc12 [WMA-RV8] |  |  | 13 | > 1280
